# “Also recorded” adds a separate entry of the source.
# Columns and labels:
# AcrAB efflux pump [1] = test: Bacterial staining (pellet colour) test for AcrAB efflux pump activity; format: cell-based, Escherichia coli; conditions: 1 μg/mL, 15 min
# Method: The experimental protocol is the same as that described in the previous examples, except for the bacterial strains used. Briefly, compounds 29 and 392 (1 μg/mL) were added to 5 mL of a cell suspension of different E. coli strains (OD=1.5), mixed by tilting and left to stand on the table at room temperature for 15 min. The cells were then centrifuged at 3500 rpm for 10 min and rinsed with potassium phosphate buffer (PBP). The cell pellet was washed only once.
# PatA-PatB transporter = test: Bacterial staining (pellet colour) test on PatA-PatB transporter mutants; format: cell-based, Streptococcus pneumoniae; conditions: 1 μg/mL
# Method: (§1) Bacterial staining: Bacteria in exponential growth phase are incubated for 15 min in the presence of compound 053. The bacteria are then washed twice in phosphate buffer and centrifuged, with the pellets observed with the naked eye.
# (§2) The following protocol was followed: • 1. Grow bacteria on a freshly prepared Muller Hilton-II (MH-II) agar plate. Incubate the Petri dish overnight at 37° C. (Note: Incubation temperature and growth time depend on the bacteria used in the experiment). • 2. The next morning, pick one or two colonies from the overnight plate and inoculate them in an Erlenmeyer flask containing 20 mL MH-II broth. • 3. Incubate the Erlenmeyer on an orbital shaker at 37° C. and 160 rpm for 3-4 hrs. Note: This step allows us to obtain cells in exponential phase, so we need to consider the doubling time of the bacteria used. • 4. After incubation, transfer the cells to a centrifuge tube and centrifuge at 4500 rpm for 10 minutes. Discard supernatant. Add fresh MH-II broth to the centrifuge tube and adjust the optical density of the cells to 0.5. • 5. Transfer an aliquot (5 mL) of cells with adjusted optical density to a new centrifuge tube (50 mL). Add 3.75 μL of compound 053 stock solution (1000 μg/mL) to this tube. Cap the tubes and shake thoroughly to mix the compound. Then keep the centrifuge tube on the table for 15 minutes at room temperature. Note: It is preferable to have a larger surface area to facilitate agitation. […] After 15 minutes contact time, centrifuge the tubes for 10-15 minutes at 4500 rpm to obtain cell pellets and discard supernatant. Using 5 mL of phosphate- or potassium phosphate-buffered saline (PBS, pH7), wash the cell pellets thoroughly (PBS, pH7), repeating this operation twice. Note: Pipette several times with a 5 mL or 1 mL pipette during washing. Make sure there are no lumps during pipetting. The purpose of washing is to remove excess dye from the cell surface. • 7. The color variation in the cells is visible to the naked eye on the cell pellet after the two washes. • a. […]
# NorA efflux pump [2] = test: Fluorescence measurement (spectrofluorimetry, excitation 530 nm) of treated bacteria; format: cell-based, Staphylococcus aureus
# Method: (§3) Bacterial strains: The inventors used the following strains of Staphylococcus aureus: • CIP 76.25, a reference strain producing a basal level of NorA, • SA1199, a reference strain producing a basal level of NorA, • SA 1199B, an overproducer of the NorA pump, and • SA K1758 with the NorA gene deleted, (Kaatz et al., 2003, Antimicrob Agents Chemother. 2003 February; 47(2): 719-26).
# (§4) Fluorescence measurement: Bacteria in exponential growth phase are incubated for 15 min in the presence of compound 053. The optical density at 600 nm is then adjusted to 0.5 and 50 μL is transferred to a black microtiter plate. Fluorescence is read in a Tecan M200 microplate reader.
# BmrA efflux pump [3] = biological target: T1, BmrA efflux pump (Bacillus subtilis, UniProt O06967); test: Bacterial staining (pellet colour) test on BmrA efflux pump mutants; format: cell-based; conditions: 0.75 μg/mL
# T1 construct: endogenous in cells; host or cells: Bacillus subtilis 168 (DSM 402), BmrA+++ overproducer, BmrA deletion strain
# Method: as §1
# as §2, with “agitation. The final concentration of 053 used in the experiment is 0.75 μg/mL.” for “agitation.”
# BmrA efflux pump [4] = test: as above; format: cell-based, Bacillus subtilis; conditions: BmrAΔ (BmrA deleted); 0.75 μg/mL
# Method: as §1
# as §2, with “agitation. The final concentration of 053 used in the experiment is 0.75 μg/mL.” for “agitation.”
# AcrAB efflux pump [5] = biological target: T2, AcrAB efflux pump (Escherichia coli, UniProt P31224); test: Pellet colour test for AcrAB efflux pump activity in strains pretreated with CCCP; format: cell-based; conditions: 1 μg/mL; cells pretreated 1 hr with CCCP 5 μg/mL; EC, AG100, AG100A versus AG102
# T2 construct: strain AG100 is the wild-type strain of E. coli (Wild) also showing normal efflux; endogenous in cells; host or cells: Escherichia coli ATCC11775, AG100 (wild type), AG102 (AcrAB overexpressing), AG100A (acrAB deleted)
# Method: The inventors also tested compound 053 (1 μg/mL) on the same Escherichia coli strains with varying levels of AcrAB efflux pump expression. The protocol was slightly modified to introduce a pre-treatment step with Carbonyl Cyanide m-Chlorophenylhydrazone (CCCP). CCCP is a chemical inhibitor of oxidative phosphorylation. It interferes with the transmembrane electrochemical gradient and proton-motive force, and consequently reduces ATP production. The effect of CCCP is to reduce the efficiency of efflux pumps, making it easier to perceive differences in staining between different strains.
# The experimental protocol is the same as that described in the examples, with the difference that cells are treated for 1 hr with CCCP (5 μg/mL) in phosphate buffer (PPB). After CCP treatment, the whole experiment is run in PPB instead of MH-II broth from step 4 onwards.
# NorA efflux pump [6] = test: Relative fluorescence intensity of treated strains fixed with PFA or ethanol; format: cell-based, Staphylococcus aureus; conditions: fixing agent 1% w/v PFA or 70% cold ethanol; CIP 76.25, SA, SA1199B, SA K1758
# Source text: (§5) The results are consistent with those obtained previously. […] The inventors also tested the impact that a fixing agent such as 1% w/v paraformaldehyde (PFA) or 70% cold ethanol might have on cells treated with compound 053.
# NorA efflux pump [7] = test: Fluorescence reading by flow cytometry of treated bacteria; format: cell-based, Staphylococcus aureus
# Source text: The inventors also carried out a fluorescence reading by flow cytometry in order to validate the results previously obtained by spectrofluorimetry. Advantageously, flow cytometry considers only the fluorescence within the cell and not surrounding it, thus enabling direct assessment of the concentration of compound 053 within the cell without the need for rinsing.
# as §5
# NorA efflux pump [8] = test: Bacterial staining (pellet colour) test for NorA efflux pump activity; format: cell-based, Staphylococcus aureus; conditions: 0.75 μg/mL, 15 min
# Method: as §3, §1
# as §2, with “agitation. The final concentration of 053 used in the experiment is 0.75 μg/mL.” for “agitation.”, “supernatant.” for “supernatant. Using 5 mL of phosphate- or potassium phosphate-buffered saline (PBS, pH7), wash the cell pellets thoroughly (PBS, pH7), repeating this operation twice. Note: Pipette several times with a 5 mL or 1 mL pipette during washing. Make sure there are no lumps during pipetting. The purpose of washing is to remove excess dye from the cell surface. • 7. The color variation in the cells is visible to the naked eye on the cell pellet after the two washes. • a.”
# BmrA efflux pump [9] = biological target: T1, BmrA efflux pump; test: Fluorescence measurement (spectrofluorimetry) on BmrA efflux pump mutants; format: cell-based
# Method: as §4
# (§6) Bacterial strains: The inventors used • the reference strain Bacillus subtilis 168 (DSM 402) producing a basal level of BmrA, • Bacillus subtilis BmrA+++ overproducing the BmrA pump and • Bacillus subtilis BmrA Δ with the BmrA gene deleted. • (see Steinfels E et al. Biochemistry 43:7491-7502 and Krügel Het al. FEMS Microbiol Lett. 2010 December; 313(2): 155-63).
# (§7) The protocols used are identical to those used in example 2-1.
# BmrA efflux pump [10] = test: as above; format: cell-based, Bacillus subtilis; conditions: pump-free mutant (BmrAΔ)
# Method: as §4, §6, §7
# [11] = strain AG100 (wild-type), normal efflux
# [12] = strain AG102 (AcrAB overexpression)
# [13] = strain EC (ATCC11775), normal efflux
# [14] = strain SA 1199B (NorA overproducer)
# T1 sequence (O06967 whole entry): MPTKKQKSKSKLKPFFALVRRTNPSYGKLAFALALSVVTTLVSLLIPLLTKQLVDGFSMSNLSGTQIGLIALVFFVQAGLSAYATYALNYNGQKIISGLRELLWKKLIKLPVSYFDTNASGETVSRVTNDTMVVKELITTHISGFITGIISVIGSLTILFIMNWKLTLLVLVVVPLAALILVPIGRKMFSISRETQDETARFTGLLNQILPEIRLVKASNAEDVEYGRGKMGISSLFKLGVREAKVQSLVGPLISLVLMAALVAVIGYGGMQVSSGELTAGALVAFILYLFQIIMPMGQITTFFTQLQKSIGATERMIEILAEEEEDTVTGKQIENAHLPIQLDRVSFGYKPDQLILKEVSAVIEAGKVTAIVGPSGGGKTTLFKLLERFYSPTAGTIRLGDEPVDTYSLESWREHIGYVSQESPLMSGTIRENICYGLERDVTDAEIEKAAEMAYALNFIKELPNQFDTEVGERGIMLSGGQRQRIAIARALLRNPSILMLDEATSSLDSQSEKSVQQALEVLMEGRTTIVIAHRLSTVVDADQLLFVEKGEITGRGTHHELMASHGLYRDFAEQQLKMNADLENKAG
# T2 sequence (P0AE06 25-397): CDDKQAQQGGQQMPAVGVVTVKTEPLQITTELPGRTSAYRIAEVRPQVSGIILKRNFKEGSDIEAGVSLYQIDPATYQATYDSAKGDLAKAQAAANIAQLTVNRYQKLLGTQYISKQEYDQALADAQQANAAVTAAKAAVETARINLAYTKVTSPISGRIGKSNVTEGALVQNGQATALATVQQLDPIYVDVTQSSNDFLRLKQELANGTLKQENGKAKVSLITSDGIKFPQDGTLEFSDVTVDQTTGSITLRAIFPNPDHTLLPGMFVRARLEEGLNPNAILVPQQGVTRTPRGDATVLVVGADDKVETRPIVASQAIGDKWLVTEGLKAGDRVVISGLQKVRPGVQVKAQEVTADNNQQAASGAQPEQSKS
# T2 sequence (P02930 23-493, further chain): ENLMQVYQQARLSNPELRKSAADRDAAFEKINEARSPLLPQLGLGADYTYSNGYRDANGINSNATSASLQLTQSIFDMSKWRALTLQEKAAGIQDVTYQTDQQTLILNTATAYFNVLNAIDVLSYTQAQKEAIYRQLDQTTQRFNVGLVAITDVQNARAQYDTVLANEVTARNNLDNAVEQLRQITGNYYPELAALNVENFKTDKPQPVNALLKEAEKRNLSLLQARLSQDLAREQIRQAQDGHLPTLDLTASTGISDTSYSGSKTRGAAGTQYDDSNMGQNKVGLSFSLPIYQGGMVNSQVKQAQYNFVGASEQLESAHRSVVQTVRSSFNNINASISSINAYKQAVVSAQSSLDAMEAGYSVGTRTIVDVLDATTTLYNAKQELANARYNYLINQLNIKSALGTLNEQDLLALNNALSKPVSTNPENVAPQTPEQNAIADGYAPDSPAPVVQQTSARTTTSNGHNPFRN
# T2 sequence (P31224 whole entry): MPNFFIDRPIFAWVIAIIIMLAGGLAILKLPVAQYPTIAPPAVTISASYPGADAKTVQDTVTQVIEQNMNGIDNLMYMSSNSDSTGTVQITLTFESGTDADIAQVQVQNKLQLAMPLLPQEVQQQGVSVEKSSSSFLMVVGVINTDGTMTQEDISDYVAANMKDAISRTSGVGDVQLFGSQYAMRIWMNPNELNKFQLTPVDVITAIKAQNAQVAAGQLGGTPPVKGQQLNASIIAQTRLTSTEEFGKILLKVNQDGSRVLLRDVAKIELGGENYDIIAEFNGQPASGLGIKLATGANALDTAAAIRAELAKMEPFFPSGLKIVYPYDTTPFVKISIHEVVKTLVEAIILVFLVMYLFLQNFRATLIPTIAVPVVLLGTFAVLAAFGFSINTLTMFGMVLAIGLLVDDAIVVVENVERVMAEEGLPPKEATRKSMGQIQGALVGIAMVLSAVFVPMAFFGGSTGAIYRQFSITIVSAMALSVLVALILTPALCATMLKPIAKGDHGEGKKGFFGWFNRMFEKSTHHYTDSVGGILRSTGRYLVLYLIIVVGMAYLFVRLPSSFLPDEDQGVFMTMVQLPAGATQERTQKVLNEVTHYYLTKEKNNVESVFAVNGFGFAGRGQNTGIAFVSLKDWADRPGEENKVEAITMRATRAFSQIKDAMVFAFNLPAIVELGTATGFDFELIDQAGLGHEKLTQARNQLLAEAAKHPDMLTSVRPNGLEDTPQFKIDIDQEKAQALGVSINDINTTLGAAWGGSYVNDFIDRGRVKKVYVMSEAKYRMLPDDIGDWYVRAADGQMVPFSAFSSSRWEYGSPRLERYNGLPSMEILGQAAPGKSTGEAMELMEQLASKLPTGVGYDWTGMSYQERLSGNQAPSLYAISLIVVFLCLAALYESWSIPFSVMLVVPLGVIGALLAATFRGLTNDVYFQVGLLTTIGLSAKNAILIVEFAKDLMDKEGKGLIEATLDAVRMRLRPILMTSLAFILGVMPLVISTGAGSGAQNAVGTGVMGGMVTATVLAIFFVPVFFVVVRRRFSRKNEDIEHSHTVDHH
compound,measurement,setting,value
CCCCNc1ccc2nc3cc(NCCC)c(N)cc3[n+](CCCC)c2c1 [compound 29],staining of bacteria (pellet colour),AcrAB efflux pump [1]; [11],very pale pink
same,staining of bacteria (pellet colour),AcrAB efflux pump [1]; strain AG100A (acrAB deleted),dark pink stain
same,staining of bacteria (pellet colour),AcrAB efflux pump [1]; [12],unstained
same,staining of bacteria (pellet colour),AcrAB efflux pump [1]; [13],very pale pink
CCCCNc1ccc2nc3cc(NCCOC)c(N)cc3[n+](CCC)c2c1 [compound 053],colour of bacterial pellet,PatA-PatB transporter; DEL strain (PatA-PatB deleted),dark pink
same,colour of bacterial pellet,PatA-PatB transporter; OVP strain (overexpressing PatA-PatB),white
same,colour of bacterial pellet,PatA-PatB transporter; WT strain (basal PatA-PatB),dark pink
same,fluorescence of treated bacteria,NorA efflux pump [2]; strain CIP 76.25 (low NorA level),intermediate levels of fluorescence
same,fluorescence of treated bacteria,NorA efflux pump [2]; strain SA 1199 (low NorA level),intermediate levels of fluorescence
same,fluorescence of treated bacteria,NorA efflux pump [2]; [14],almost nil
same,fluorescence of treated bacteria,NorA efflux pump [2]; strain SA K1758 (NorA pump-free mutant),high fluorescence
same,colour of bacterial pellet,BmrA efflux pump [3]; BmrA+++ (overexpressing BmrA),white; also recorded: No coloration
same,colour of bacterial pellet,BmrA efflux pump [3]; wild-type B. subtilis 168 (DSM 402),Intermediate pale pink
same,colour of bacterial pellet,BmrA efflux pump [4],dark pink
same,visual distinction of strains by pellet staining,AcrAB efflux pump [5],visually possible to distinguish
same,efflux differential between strains after fixation,NorA efflux pump [6],efflux differential between the different strains remains visible
same,accumulation in cells (fluorescence intensity by flow cytometry),NorA efflux pump [7]; NorA-overexpressing strain SA1199B,accumulated very little
same,accumulation in cells (fluorescence intensity by flow cytometry),NorA efflux pump [7]; norA-deleted strain SA K1758,accumulated heavily
same,accumulation in cells (fluorescence intensity by flow cytometry),NorA efflux pump [7]; reference strain SA,accumulated moderately
same,accumulation in cells (fluorescence intensity by flow cytometry),NorA efflux pump [7]; wild-type strain CIP 76.25,accumulated moderately
same,colour of bacterial pellet,"NorA efflux pump [8]; strain CIP 76.25 (reference, basal NorA)",Intermediate colors; also recorded: intermediate pale pink
same,colour of bacterial pellet,NorA efflux pump [8]; [14],No coloration; also recorded: white/off-white
same,colour of bacterial pellet,NorA efflux pump [8]; strain SA K1758 (NorA deleted),bright dark pink
same,fluorescence of treated bacteria,BmrA efflux pump [9]; overproducing strain (BmrA+++),almost nil
same,fluorescence of treated bacteria,BmrA efflux pump [9]; wild-type strain (DSM 402),intermediate levels of fluorescence
same,fluorescence of treated bacteria,BmrA efflux pump [10],very high
CCCCCCCC[n+]1c2cc(NCCCC)ccc2nc2cc(NCCOC)c(N)cc21 [compound 392],staining of bacteria (pellet colour),AcrAB efflux pump [1]; [11],very pale pink
same,staining of bacteria (pellet colour),AcrAB efflux pump [1]; strain AG100A (acrAB deleted),dark pink stain
same,staining of bacteria (pellet colour),AcrAB efflux pump [1]; [12],unstained
same,staining of bacteria (pellet colour),AcrAB efflux pump [1]; [13],very pale pink

# From patent US20250250240A1, “PHENAZINE COMPOUND FOR MEASURING BACTERIAL EFFLUX” (priority 2022, published 2025)
